PMC7794356, “Streamlined copper defenses make Bordetella pertussis reliant on custom-made operon” (Communications Biology, 2021)

Target: GorB (BP1729) (Bordetella pertussis, UniProt Q7VXM2)
Experiment: NADPH oxidation followed at […] nm
Type: biochemical
Settings: 0.3 mM NADPH, 8 mM GSH; GSSG generated in situ from GSH by H2O2 (0.1-2 mM); 0.1 M sodium/potassium phosphate pH 7.6, 25 °C

Chain of GorB (BP1729) (Q7VXM2 entry or part of it): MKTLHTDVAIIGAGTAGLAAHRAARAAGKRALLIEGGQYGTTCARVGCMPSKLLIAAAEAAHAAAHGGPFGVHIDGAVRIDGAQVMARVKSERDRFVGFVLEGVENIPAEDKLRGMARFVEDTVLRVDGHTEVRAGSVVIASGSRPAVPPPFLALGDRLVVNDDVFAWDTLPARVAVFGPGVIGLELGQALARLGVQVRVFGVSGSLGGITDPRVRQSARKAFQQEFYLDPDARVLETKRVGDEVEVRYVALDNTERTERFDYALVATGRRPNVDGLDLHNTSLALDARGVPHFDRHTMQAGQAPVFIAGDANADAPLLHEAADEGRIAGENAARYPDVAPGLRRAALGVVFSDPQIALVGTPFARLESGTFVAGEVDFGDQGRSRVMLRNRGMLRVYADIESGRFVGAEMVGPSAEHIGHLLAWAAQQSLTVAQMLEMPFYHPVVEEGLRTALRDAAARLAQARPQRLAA

For `NC(=O)C1=CN([C@@H]2O[C@H](COP(=O)(O)OP(=O)(O)OC[C@H]3O[C@@H](n4cnc5c(N)ncnc54)[C@H](OP(=O)(O)O)[C@@H]3O)[C@@H](O)[C@H]2O)C=CC1` [NADPH], the “NADPH oxidation followed at 340 nm” value was “Oxidation of NADPH by recombinant GorB over time”.
